“And” between values parts separate entries of the source, which are not always exact repeats. Identical values can stand only once.
How the values were obtained:
NF-κB = assay: EMSA of NF-κB DNA binding in Namalwa B cells; assay type: cell-based, human; conditions: 10, 0.1, 0.01, 0.001 μM, TNF 2000 IU/ml, FIG. 8B
B-CLL cells = assay: Annexin V/PI flow cytometric analysis of apoptosis in ex-vivo cultured B-CLL cells; assay type: cell-based, human; conditions: 24 hours
Experimental: Blood samples were obtained from B-CLL patients after informed consent according to institutional guidelines. CLL lymphocytes were isolated using Lymphoprep (Nycomed Pharma, Denmark) and re-suspended at a final concentration of 10−30×10^6 cells/ml in RPMI 1640 medium, supplemented with 10% heat-inactivated fetal bovine serum (FBS) (Greiner Bio-one, Wemmel, Belgium), 100 IU/ml penicillin, 100 μg/ml streptomycin, and 0.56 μg/mL fungizone (Gibco BRL, Merelbeke, Belgium). B-CLL cells were cultured in Dulbecco's Modified Eagle Medium (DMEM) (Gibco, Invitrogen Inc.) containing 10% FBS (Gibco, Invitrogen Inc.). For flow cytometric analysis of apoptosis, B-CLL cells were treated with the different compounds for 24 hours, 3×10^5 cells were removed from the culture medium, washed twice with cold PBS, and double stained with annexin V-fluorescein isothiocyanate (FITC) and propidium iodide (PI; Beckman Coulter, Miami, Fla.) in Annexin binding buffer, followed by analysis on a FC500PTM (Beckman Coulter, Nyon, Switzerland) flow cytometer. Flow cytometric data were analyzed using Cytomixs RXP software (Beckman Coulter, Nyon, Switzerland). To avoid non-specific fluorescence from dead cells, live cells were gated using forward and side scatter.
One of the early signs of apoptosis is the translocation of the membrane phospholipid phosphatidylserine from the cytoplasmic interface to the extracellular surface. Annexin V has a high affinity for the phospatidylserine-containing phospholipid bilayers. […] As the plasma membrane becomes increasingly permeable during the later stages of apoptosis, the DNA-binding dye PI can readily move across the cell membrane and bind to cellular DNA, providing a means to detect the loss of membrane integrity through mechanisms including necrosis. Three different cell populations can be observed in cells double-stained with AnnV-FITC and PI. […] Cells that stain with Ann V only are early apoptotic cells. And cells that stain with both AnnV and PI are late apoptotic/necrotic cells. The percentage of AnnV-positive B-CLL cells in the lymphocyte gate were measured by FACS and results were expressed as % apoptotic cells, i.e. sum of early apoptotic (AnnV+, PI−), and late apoptotic/dead cells (AnnV+, PI+). The percent of living cells was normalized to 100% living cells incubated in control medium with 0.1% EtOH. All measurements were made in duplicate and averaged.

[1] = MTT test, cell viability of L929sA fibroblasts; assay type: cell-based, murine; conditions: mouse, L929sA fibroblast cells, read-out: Block of L929sA cell viability
Experimental: The MTT test is a standard assay addressing cell toxicity of a compound. It is based on the principle that after 3-4 hours of cell incubation with MTT (3-(4,5-dimethylthiazole-2-yl)-2,5-diphenyl tetrazolium bromide) so-called purple formazan crystals develop in living and early apoptotic cells. Dead cells don't produce formazan crystals.
Different cell lines were tested. Unless indicated differently, A549 human lung epithelial cells (derived from lung carcinoma) and L929sA murine fibroblast cells were cultured in DMEM with 10% FCS, 100 U/ml penicillin and 100 μg/ml streptomycin. Unless indicated differently, the human multiple myeloma cell lines L363, U266 and MM1.S were cultured in RPMI 1640 with Glutamax-I, supplemented with 10% FCS, 100 U/ml penicillin and 100 μg/ml streptomycin. Cells were seeded at 5000 cells/well (for adherent A549 and L929sA cells) or at 10000 cells/well (for the multiple myeloma lines in suspension) in 96 well plates. Cells were incubated in the presence of the respective synephrine compounds or vehicle (EtOH; for control test) in a final volume of 0.2 ml for 24 or 48 hours at 37° C. Subsequently, 20 μl of MTT solution (5 mg/ml in phosphate-buffered saline) was added to each well. After 4 hours incubation at 37° C., 80 μl of the extraction buffer (10% SDS, 0.01 M HCl) was added. After overnight incubation at room temperature, the optical densities at 590 nm were measured. Results are illustrated in FIGS. 2 to 6 and are expressed as percentage of viable cells as compared to vehicle-treated controls.
In a further MTT test, the activity of the synephrine derivatives on the inhibition of cell viability of non-immune cells was measured. […] Tests were performed for 24 hours and for 48 hours. The results are illustrated by FIGS. 5A and 5B for L929 cells, and by FIGS. 6A and 6B for A549 cells. It was observed that CpdA at 10^−5 M blocked cell viability of L929sA and A549 for not more than 10%.

CNCC(Cl)c1ccc(OC(C)=O)cc1.Cl (stereo not shown) [CpdA, 2-(4-acetoxyphenyl)-2-chloro-N-methyl-ethylammonium chloride]
NF-κB binding to kB DNA sequence (EMSA) (NF-κB): inhibits NF-κB binding to kB DNA sequence
% apoptotic cells, CLL patient 1 (B-CLL cells; 10^−6M): 43%
% apoptotic cells, CLL patient 2 (B-CLL cells; 10^−6M): 54%
Apoptosis in cells from 2 different CLL patients (B-CLL cells; 10^−7M): 40% and 55%
cytotoxicity at 24 h ([1]; 10^−4 M, 24 hours, FIG. 5A): 20%
cytotoxicity at 48 h ([1]; 10^−4 M, 48 hours, FIG. 5B): 60%
cytotoxicity ([1]; 10^−5 M, 24 hours and 48 hours, FIGS. 5A and 5B): ≤ 10%
